Assay results reported in ChEMBL document CHEMBL4411335, “Identification and Optimization of Novel Small c-Abl Kinase Activators Using Fragment and HTS Methodologies” (J Med Chem, 2019).
In brackets after ≈: the same amount, converted by molar mass.

Assays:
[1] = molecular target: Tyrosine-protein kinase ABL1 (Homo sapiens, UniProt P00519, D382N); test: Displacement of Myr-GQQPGKVLGDQRRPSL(K-TAMRA)G-amide from N-terminal-truncated human c-ABL D382N mutant (46 to 534 residues) after 30 mins by fluorescence polarization binding assay
[2] = Permeability of the compound at […] after 3 hrs by artificial membrane permeability assay; format: ADME; conditions: PAMPA; read-out: permeability
[3] = molecular target: T1, Tyrosine-protein kinase ABL1 (Homo sapiens, UniProt P00519); test: Activation of full length human 6His-tagged c-Abl expressed in baculovirus expression system using abltide as substrate after 2 hrs by IMAP assay; conditions: for EC50 for c-Abl activation: read-out: pIC50 (converted)
[4] = Kinetic solubility of the compound at pH 7.4 after 1 hr by CLND-based assay; format: physicochemical; conditions: buffer, read-out: Kinetic_solubility
[5] = molecular target: T1, Tyrosine-protein kinase ABL1; test: Induction of human c-ABL phosphorylation at Y245/Y412 residues in bacmam-induced HEK-MSR2 cell lysates by in-cell Western blot analysis; format: subcellular, Lysate

T1 sequence (P00519 whole entry): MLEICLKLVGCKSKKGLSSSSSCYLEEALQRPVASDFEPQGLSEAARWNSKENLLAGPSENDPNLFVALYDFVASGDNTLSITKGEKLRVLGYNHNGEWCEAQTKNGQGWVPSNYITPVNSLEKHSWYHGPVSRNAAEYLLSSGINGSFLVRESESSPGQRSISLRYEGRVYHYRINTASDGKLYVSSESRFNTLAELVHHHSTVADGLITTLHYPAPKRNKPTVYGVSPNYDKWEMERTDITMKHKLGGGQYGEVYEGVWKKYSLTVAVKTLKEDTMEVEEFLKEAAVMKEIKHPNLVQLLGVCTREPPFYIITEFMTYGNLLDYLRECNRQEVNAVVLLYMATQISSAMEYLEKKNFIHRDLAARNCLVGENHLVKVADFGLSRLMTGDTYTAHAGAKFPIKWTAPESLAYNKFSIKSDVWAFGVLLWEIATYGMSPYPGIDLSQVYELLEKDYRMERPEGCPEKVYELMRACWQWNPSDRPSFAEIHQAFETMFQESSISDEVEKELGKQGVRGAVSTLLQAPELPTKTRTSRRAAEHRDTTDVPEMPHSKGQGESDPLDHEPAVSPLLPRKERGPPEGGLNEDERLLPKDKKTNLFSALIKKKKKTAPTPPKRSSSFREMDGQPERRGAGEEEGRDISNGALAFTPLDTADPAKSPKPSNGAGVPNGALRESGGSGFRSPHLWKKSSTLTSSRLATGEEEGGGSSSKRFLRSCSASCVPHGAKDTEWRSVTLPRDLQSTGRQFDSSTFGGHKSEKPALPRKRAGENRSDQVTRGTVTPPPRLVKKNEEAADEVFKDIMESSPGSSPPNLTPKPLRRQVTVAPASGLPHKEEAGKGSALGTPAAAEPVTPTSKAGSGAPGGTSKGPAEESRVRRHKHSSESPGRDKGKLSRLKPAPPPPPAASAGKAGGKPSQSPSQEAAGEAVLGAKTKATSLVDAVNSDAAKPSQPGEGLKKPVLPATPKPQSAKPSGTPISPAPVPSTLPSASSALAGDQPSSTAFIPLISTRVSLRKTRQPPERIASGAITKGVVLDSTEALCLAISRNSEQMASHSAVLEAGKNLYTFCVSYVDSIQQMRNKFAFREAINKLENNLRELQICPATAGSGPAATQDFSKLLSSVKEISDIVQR
Chain of Tyrosine-protein kinase ABL1 (Homo sapiens, UniProt P00519, D382N) (P00519 as listed by the source D382N): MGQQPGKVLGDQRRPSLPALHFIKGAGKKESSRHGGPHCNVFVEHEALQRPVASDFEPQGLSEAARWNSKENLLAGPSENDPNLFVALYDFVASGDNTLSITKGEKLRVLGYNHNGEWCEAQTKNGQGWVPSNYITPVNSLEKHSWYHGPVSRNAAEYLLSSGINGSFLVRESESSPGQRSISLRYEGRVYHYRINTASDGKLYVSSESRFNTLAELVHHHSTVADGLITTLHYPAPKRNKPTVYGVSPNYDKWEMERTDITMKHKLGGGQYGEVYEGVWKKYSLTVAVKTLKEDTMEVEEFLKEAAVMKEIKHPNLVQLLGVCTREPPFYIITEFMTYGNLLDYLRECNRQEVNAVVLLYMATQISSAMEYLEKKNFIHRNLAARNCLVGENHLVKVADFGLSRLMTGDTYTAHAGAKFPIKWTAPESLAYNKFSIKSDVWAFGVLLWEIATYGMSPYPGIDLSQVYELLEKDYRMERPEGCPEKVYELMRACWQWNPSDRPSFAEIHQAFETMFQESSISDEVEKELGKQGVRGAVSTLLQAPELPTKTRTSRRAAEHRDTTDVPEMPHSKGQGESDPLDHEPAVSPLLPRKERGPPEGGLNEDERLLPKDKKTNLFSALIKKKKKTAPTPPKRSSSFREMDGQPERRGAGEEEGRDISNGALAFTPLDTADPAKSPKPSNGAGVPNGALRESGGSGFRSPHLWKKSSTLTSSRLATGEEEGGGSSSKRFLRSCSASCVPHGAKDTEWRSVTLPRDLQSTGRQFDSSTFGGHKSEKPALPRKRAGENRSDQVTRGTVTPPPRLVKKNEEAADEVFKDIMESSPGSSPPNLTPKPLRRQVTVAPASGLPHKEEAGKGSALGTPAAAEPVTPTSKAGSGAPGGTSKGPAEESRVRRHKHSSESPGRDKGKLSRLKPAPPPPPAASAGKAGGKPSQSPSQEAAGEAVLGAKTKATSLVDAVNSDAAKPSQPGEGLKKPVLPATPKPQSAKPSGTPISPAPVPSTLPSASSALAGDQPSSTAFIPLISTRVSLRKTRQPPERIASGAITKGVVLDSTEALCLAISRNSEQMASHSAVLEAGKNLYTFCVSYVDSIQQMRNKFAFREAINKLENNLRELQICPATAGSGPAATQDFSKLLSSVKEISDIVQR

| SMILES | IC50 [1] [nM] | Papp at 3 h [2] [×10⁻⁶ cm/s] | EC50 for c-Abl activation [3] [nM] | solubility kinetic at 1 h [4] [µM] | EC50 [5] [nM] | EC50 [3] [nM] |
| --- | --- | --- | --- | --- | --- | --- |
| CC(=O)Nc1nc(-c2cc(Cl)c(Cl)s2)cs1 | 6310 | 28 | > 100000 | 1 (≈ 0.293 µg/mL) | > 50100 |  |
| O=C(NC1=NN(c2ccc(Cl)c(Cl)c2)CC1CCO)c1cccnc1 (racemic) | 251 | 19 | 126 | 192 (≈ 72.8 µg/mL) | 7940 |  |
| N#CCC(=O)Nc1csc(-c2ccc(Cl)c(Cl)c2)n1 | 126 | 35 | 1580 | 2 (≈ 0.624 µg/mL) | 15800 |  |
| CC(=O)NC1=NN(c2ccc(Cl)c(Cl)c2)CC1C (racemic) | 794 | 40.5 |  | 49 (≈ 14 µg/mL) | 501 |  |
| CC(=O)Nc1nc(-c2nc(C)no2)cs1 | > 50100 | 25 | > 100000 | 186 (≈ 41.7 µg/mL) |  |  |
| N#CCC(=O)Nc1nc(-c2ccc(Cl)c(Cl)c2)ns1 | 1000 | 23 | 3160 | 370 (≈ 116 µg/mL) | 10000 |  |
| CC(=O)NC1=NN(c2ccc(Cl)c(Cl)c2)[C@@H](C)C1 | 398 | 42 | 501 | 125 (≈ 35.8 µg/mL) | 10000 |  |
| O=C(NC1=NN(c2ccc(Cl)c(Cl)c2)CC1)c1ccnnc1 | 501 | 36 | 251 | 23 (≈ 7.73 µg/mL) | 501 |  |
| N#CCC(=O)Nc1nsc(-c2ccc(Cl)c(Cl)c2)n1 | 2510 | 28 | 2000 | 69 (≈ 21.6 µg/mL) | 15800 |  |
| N#CCC(=O)Nc1cc(-c2ccc(Cl)c(Cl)c2)cs1 | 3980 | 19 | 3160 | 12 (≈ 3.73 µg/mL) | 20000 |  |
| CC(=O)Nc1nc(-c2ccc(Br)s2)cs1 | 5010 | 21 | 12600 | 16 (≈ 4.85 µg/mL) | > 50100 |  |
| O=C(NC1=NN(c2ccc(Cl)c(Cl)c2)CC1CCO)c1ccncc1 (racemic) | 158 | 33.5 | 100 | 167 (≈ 63.3 µg/mL) | 3160 |  |
| N#CCC(=O)Nc1ccn(-c2ccc(Cl)c(Cl)c2)n1 | 1580 | 31 | 2510 | 34 (≈ 10 µg/mL) | 7940 |  |
| N#CCC(=O)NC1=NN(c2ccc(Cl)c(Cl)c2)CC1 | 398 | 32 | 251 | 202 (≈ 60 µg/mL) | 1000 |  |
| O=C(NC1=NN(c2ccc(Cl)c(Cl)c2)CC1)c1ccncn1 | 1000 | 32 | 15800 | 13 (≈ 4.37 µg/mL) | 39800 |  |
| O=C(NC1=NN(c2ccc(Cl)c(Cl)c2)CC1)c1ccncc1 | 316 | 30.3 | 200 | 9 (≈ 3.02 µg/mL) | 1580 |  |
| O=C(NC1=NN(c2ccc(Cl)c(Cl)c2)CC1)c1cccnc1F | 398 | 57 | 126 | 13 (≈ 4.59 µg/mL) | 1260 |  |
| O=C1NC(=O)C(c2cn(-c3ccccc3)nc2-c2ccc(F)cc2)N1 (configuration not stated) | 398 | 35 |  | > 395 | 794 |  |
| O=C(NC1=NN(c2ccc(Cl)c(Cl)c2)CC1)c1cncnc1 | 501 | 35 | 251 | 8 (≈ 2.69 µg/mL) | 631 |  |
| N#CCC(=O)Nc1nc(-c2ccc(Cl)c(Cl)c2)c[nH]1 | 631 | 31 | 1580 | 14 (≈ 4.13 µg/mL) | 3160 |  |
| CC(=O)N[C@@H](C)C(=O)NC1=NN(c2ccc(Cl)c(Cl)c2)CC1 | 1260 | 34 | 1580 | 58 (≈ 19.9 µg/mL) | 7940 |  |
| N#CCC(=O)Nc1csc(-c2ccc(Cl)c(Cl)c2)c1 | 3980 | 12 | 15800 | 10 (≈ 3.11 µg/mL) | > 50100 |  |
| O=C(NC1=NN(c2ccc(Cl)c(Cl)c2)CC1)c1cccnn1 | 794 |  | 5010 | 67 (≈ 22.5 µg/mL) | > 50100 |  |
| CC(=O)NC1=NN(c2ccc(Cl)c(Cl)c2)C[C@H]1C | 3980 | 38 |  | 36 (≈ 10.3 µg/mL) | 20000 |  |
| CC(=O)NC1=NN(c2ccc(Cl)c(Cl)c2)C[C@@H]1C | 398 | 42 |  | 32 (≈ 9.16 µg/mL) | 631 |  |

The remaining lines, values ahead:

| IC50 [1] [nM] | Papp at 3 h [2] [×10⁻⁶ cm/s] | EC50 for c-Abl activation [3] [nM] | solubility kinetic at 1 h [4] [µM] | EC50 [5] [nM] | EC50 [3] [nM] | SMILES |
| --- | --- | --- | --- | --- | --- | --- |
| 200 | 26 | 31.6 | < 1 | 15800 |  | Cn1ncc([N+](=O)[O-])c1C(=O)Nc1nc(-c2ccc(Cl)c(Cl)c2)cs1 |
| 200 | 37 | 398 | 20 (≈ 7 µg/mL) | > 50100 |  | O=C(Nc1nc(-c2ccc(Cl)c(Cl)c2)cs1)c1cccnc1 |
| 1580 | 21.5 | 12600 | 1 (≈ 0.306 µg/mL) | > 50100 |  | N#CCC(=O)Nc1cccc(-c2ccc(Cl)c(Cl)c2)n1 |
| > 50100 | 34 | 7940 | 2 (≈ 0.505 µg/mL) |  |  | CC(=O)Nc1nc(-c2cccc(Cl)c2)cs1 |
| > 50100 | 22 | 25100 | 429 (≈ 139 µg/mL) | > 50100 |  | CS(=O)(=O)Nc1nc(-c2ccc(Cl)c(Cl)c2)cs1 |
| 316 | < 3 | 251 | 5 (≈ 1.93 µg/mL) | 5010 |  | O=C(Nc1nc(-c2ccc(Cl)c(Cl)c2)cs1)c1c(F)cccc1F |
| 10000 | 25 | 31600 | 1 (≈ 0.253 µg/mL) |  |  | CC(=O)Nc1nc(-c2ccc(Cl)cc2)cs1 |
| 398 |  | 631 |  | 3160 |  | O=C(NC1=NN(c2ccc(Cl)c(Cl)c2)CC1)c1c(F)cccc1F |
| 794 | 35 | 3160 | 5 (≈ 1.35 µg/mL) | 50100 |  | CC(=O)Nc1nc(-c2ccc(Cl)c(F)c2)cs1 |
| 200 | 6.1 | 501 | 2 (≈ 0.713 µg/mL) | > 50100 |  | O=C(Nc1nc(-c2ccc(Cl)c(Cl)c2)cs1)c1cncs1 |
| 12600 | 27 | > 50100 | 103 (≈ 24.1 µg/mL) |  |  | CC(=O)Nc1nc(-c2cccc(O)c2)cs1 |
| 501 | 14.2 | 1260 | 57 (≈ 17.8 µg/mL) | 5010 |  | N#CCC(=O)Nc1nc(-c2ccc(Cl)c(Cl)c2)cs1 |
| 794 |  |  |  | 20000 | 10000 | Cn1cnnc1SCC(=O)Nc1nc(-c2ccc(Cl)c(Cl)c2)cs1 |
